Results: patent US9375409B2, “Use of polyunsaturated ketones for the treatment of psoriasis” (Avexxin AS, priority 2002, dated 2016)
Read-outs that look alike come from different tables or passages of the source.

Key:
HaCaT cells = assay: MTT assay (toxicity); type: cell-based, human
Method: Confluent cells were pretreated with inhibitors in serum free medium for 1 hour, and then treated with stimulating agent for 1 hour. Conversion of substrate [3-(4, 5-dimethylthiazol-2-yl)-2, 5-diphenyl tetrazolium bromide] was measured as optical density at 580 nm after 4 hours according to Mosmann [Mosmann T, J. Immunol. Methods 65, 55-63, 1983]. For each concentration of inhibitor nine parallels were measured.

[1] = target: recombinant human IV PLA2 (Homo sapiens, UniProt P47712); assay: biochemical; conditions: for inhibition at 5 µM: read-out: inhibition of IV PLA2 enzyme activity
[2] = tested on: PGE2 production in HaCaT cells; assay: A23187-induced PGE2 release in LPS-stimulated HaCaT cells (PGE2 EIA); type: cell-based; conditions: Homo sapiens, 0.5 h, read-out: IC50 for inhibiting A23187-induced PGE2 release
[3] = read-out: IC50 for IV PLA2 inhibition

Sequence of recombinant human IV PLA2 (P47712 whole entry): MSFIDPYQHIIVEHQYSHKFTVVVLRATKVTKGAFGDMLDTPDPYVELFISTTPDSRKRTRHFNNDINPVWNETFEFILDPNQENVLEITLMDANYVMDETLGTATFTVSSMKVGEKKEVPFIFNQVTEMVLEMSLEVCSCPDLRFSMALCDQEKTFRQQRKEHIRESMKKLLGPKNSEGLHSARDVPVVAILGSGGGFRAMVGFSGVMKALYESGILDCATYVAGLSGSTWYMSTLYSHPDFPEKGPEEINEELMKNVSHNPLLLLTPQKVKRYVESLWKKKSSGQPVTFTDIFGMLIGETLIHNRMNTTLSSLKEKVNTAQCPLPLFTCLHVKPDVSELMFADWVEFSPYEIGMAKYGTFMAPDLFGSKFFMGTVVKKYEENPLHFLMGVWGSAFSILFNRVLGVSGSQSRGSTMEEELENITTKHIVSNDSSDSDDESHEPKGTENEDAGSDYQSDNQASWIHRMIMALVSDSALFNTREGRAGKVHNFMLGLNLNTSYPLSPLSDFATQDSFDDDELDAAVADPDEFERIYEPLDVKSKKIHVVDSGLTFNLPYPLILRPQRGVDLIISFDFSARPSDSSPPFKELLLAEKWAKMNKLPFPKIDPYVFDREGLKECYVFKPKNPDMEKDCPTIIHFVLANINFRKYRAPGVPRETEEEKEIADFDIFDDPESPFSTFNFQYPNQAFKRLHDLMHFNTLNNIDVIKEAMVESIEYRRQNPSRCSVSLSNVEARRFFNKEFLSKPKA

Row | Structure (SMILES) | inhibition at 5 µM [1] [%] | IC50 [1, 3] [µM] | also measured
1 | CNc1ccc2oc(C[C@H]3O[C@@]4(CC[C@H]3C)O[C@H]([C@H](C)C(=O)c3ccc[nH]3)[C@H](C)C[C@H]4C)nc2c1C(=O)O [A23187] | – | – | toxic concentration by MTT assay (HaCaT cells): higher than 10 μM
2 | CCCCC/C=C\C/C=C\C/C=C\C/C=C\CCCC(=O)C(F)(F)F [AACOCF3, reference compound] | 75 to 80 | – | IC50 [1]: 5.8 ± 1.9 µM
3 | CC/C=C\C/C=C\C/C=C\C/C=C\C/C=C\C/C=C\CCC(=O)C(F)(F)F [DHACOCF3] | 30 | 21.3 ± 1.5 | –
4 | CC/C=C\C/C=C\C/C=C\C/C=C\C/C=C\CCCC(=O)C(F)(F)F [EPACOCF3] | 75 to 80 | 2.9 ± 1.9 | IC50 ([2]; HaCaT): 0.18 µM
5 | CC/C=C\C/C=C\C/C=C\C/C=C\C/C=C\CCSCC(=O)C(F)(F)F [EPASCOCF3] | 75 to 80 | 3.5 | –
6 | CS(=O)(=O)Nc1ccc([N+](=O)[O-])cc1OC1CCCCC1 [NS-398, reference compound] | – | – | IC50 ([2]; LPS-stimulated HaCaT cells, inhibitor 0.2-25 μM for 30 min, FIG. 4): 0.24 µM
